Measurements: US20250313553A1, “ANNULATED 2-AMINO-3-CYANO THIOPHENES AND DERIVATIVES FOR THE TREATMENT OF CANCER” (Boehringer Ingelheim Int'l GmbH Corp., priority 2021, published 2025)
In brackets after ≈: the same amount, converted by molar mass. Read-outs that look alike come from different tables or passages of the source.

Key:
KRAS G12D Ba/F3 cells = KRAS G12D Ba/F3 cells (Homo sapiens, UniProt P01116, G12D, cells depend on it); experiment: Ba/F3 proliferation assay, KRAS G12D; assay type: cell-based; conditions: 72 h, AlamarBlue, read-out: KRAS G12D Ba/F3 IC50
Protocol: (§1) To generate KRASG12-dependent Ba/F3 models, Ba/F3 cells are transduced with retroviruses containing vectors that harbor KRASG12 isoforms. Platinum-E cells (Cell Biolabs) are used for retrovirus packaging. Retrovirus is added to Ba/F3 cells. To ensure infection, 4 μg/mL polybrene is added and cells are spinfected. […] Cells with an infection efficiency of 10% to 20% are further cultivated and puromycin selection with 1 μg/mL is initiated. As a control, parental Ba/F3 cells are used to show selection status. Selection is considered successful when parental Ba/F3 cells cultures died. To evaluate the transforming potential of KRASG12 mutations, the growth medium is no longer supplemented with IL-3. Ba/F3 cells harboring the empty vector are used as a control. Approximately ten days before conducting the experiments, puromycin is left out.
(§2) All treatments are performed in technical duplicates. […] AlamarBlue™ (ThermoFisher), a viability stain, is added and fluorescence measured in the PerkinElmer Envision HTS Multilabel Reader. The raw data are imported into and analyzed with the Boehringer Ingelheim proprietary software MegaLab (curve fitting based on the program PRISM, GraphPad Inc.).

[1] = system: ERK phosphorylation in NCI-H358 (KRAS G12C); experiment: ERK phosphorylation assay (assay 1, NCI-H358); assay type: cell-based; conditions: Homo sapiens; NCI-H358, assay 1, 1 h incubation; read-out: IC50 H358 pERK
Protocol: Low IC50 values in this assay setting are indicative of high potency of the compounds according to the invention. […]
The cells are incubated for 1 h at room temperature and then incubated overnight in an incubator at 37° C. and 5% CO2 in a humidified atmosphere. 60 nL compound solution (10 mM DMSO stock solution) is then added using a Labcyte Echo 550 device. […] After 20 min of incubation at room temperature with shaking, 6 μL of each lysate sample is transferred to a 384-well Proxiplate and analyzed for pERK (Thr202/Tyr204) with the AlphaLISA SureFire Ultra pERK1/2 (Thr202/Tyr204) Assay Kit. 3 μL Acceptor Mix and 3 μL Donor Mix are added under subdued light and incubated for 2 h at room temperature in the dark, before the signal is measured on a PerkinElmer Envision HTS Multilabel Reader. The raw data are imported into and analyzed with the Boehringer Ingelheim proprietary software MegaLab (curve fitting based on the program PRISM, GraphPad Inc.).

[2] = Solubility measurement (DMSO solution precipitation method); assay type: physicochemical; conditions: aqueous buffer, kinetic from dmso stock
Protocol: The DMSO solution is diluted with an aqueous medium (McIlvaine buffer with pH=4.5 or 6.8) to a final concentration of 250 μM. After 24 h of shaking at ambient temperature a potentially formed precipitate is removed by filtration. The concentration of the test compound in the filtrate is determined by LC-UV methods by calibrating the signal to the signal of a reference solution with complete dissolution of the test compound in acetonitrile/water (1:1) with known concentration.

KRAS (G12V) and SOS1 = biological target: T1, KRAS (G12V) and SOS1 (Homo sapiens, UniProt P01116, C118S/G12V); experiment: KRAS::SOS1 AlphaScreen binding assay, KRAS G12V
T1 construct: KRAS (G12V) 1-169, N-terminal 6His-tag for purification; 6His (N, cleaved yes); TEV cleavage site
Protocol: (§3) Low IC50 values in this assay setting are indicative of strong inhibition of protein-protein interaction between SOS1 and KRAS:
(§4) These assays measure the inhibitory effect of compounds on KRAS mutant protein-protein interactions using the Alpha Screen technology by Perkin Elmer.
(§5) For the chosen highest assay concentration of 100 μM, 150 nL of compound solution are transferred from a 10 mM DMSO compound stock solution. A series of eleven fivefold dilutions per compound are transferred to the assay plate, compound dilutions are tested in duplicates. DMSO are added as backfill to a total volume of 150 nL.
(§6) The assays run on a fully automated robotic system in a darkened room below 100 Lux. To 150 nl of compound dilution 10 μl of a mix including KRAS mutant protein, SOS1 (final assay concentrations see above) and GDP nucleotide (Sigma G7127; final assay concentration 10 μM) in assay buffer (1×PBS, 0.1% BSA, 0.05% Tween 20) are added into columns 1-24. After 30 minutes incubation time 5 μl of Alpha Screen bead mix in assay buffer are added into columns 1-23.
(§7) Plates are kept at room temperature in a darkened incubator. After an additional 60 minutes incubation time the signal is measured in a PerkinElmer Envision HTS Multilabel Reader using the AlphaScreen specs from PerkinElmer.
(§8) IC50 values are calculated and analyzed with Boehringer Ingelheim's MEGALAB IC50 application using a 4 parametric logistic model.

KRAS (G12D) and SOS1 = biological target: T2, KRAS (G12D) and SOS1 (Homo sapiens, UniProt P01116, G12D); experiment: KRAS::SOS1 AlphaScreen binding assay, KRAS G12D
T2 construct: KRAS (G12D) 1-169, N-terminal 6His-tag; 6His (N); purchased Xtal BioStructures, Inc. (KRAS G12D); Viva Biotech Ltd (SOS1)
Protocol: as §3, §4, §5, §6, §7, §8

KRAS G12V Ba/F3 cells = KRAS G12V Ba/F3 cells (Homo sapiens, UniProt P01116, G12V, cells depend on it); experiment: Ba/F3 proliferation assay, KRAS G12V; assay type: cell-based; conditions: 72 h, AlamarBlue, read-out: KRAS G12V Ba/F3 IC50
Protocol: as §1, §2

KRAS G12C Ba/F3 cells = KRAS G12C Ba/F3 cells (Homo sapiens, UniProt P01116, G12C, cells depend on it); experiment: Ba/F3 proliferation assay, KRAS G12C; assay type: cell-based; conditions: 72 h, AlamarBlue, read-out: KRAS G12C Ba/F3 IC50
Protocol: as §1, §2

KRAS (G12C) and SOS1 = biological target: T3, KRAS (G12C) and SOS1 (Homo sapiens, UniProt P01116, C118S/C51S/C80L/G12C); experiment: KRAS::SOS1 AlphaScreen binding assay, KRAS G12C
T3 construct: KRAS (G12C) 1-169, N-terminal 6His-tag for purification; 6His (N, cleaved yes)
Protocol: as §3, §4, §5, §6, §7, §8

[3] = Metabolic (microsomal) stability assay, HLM; assay type: in vitro ADME; conditions: human liver microsomes, 1 μM, predicted clearance as percent of liver blood flow
Protocol: The metabolic degradation of the test compound is assayed at 37° C. with pooled liver microsomes (mouse (MLM), rat (RLM) or human (HLM)). The final incubation volume of 48 μL per time point contains TRIS buffer (pH 7.5; 0.1 M), magnesium chloride (6.5 mM), microsomal protein (0.5 mg/mL for mouse/rat, 1 mg/mL for human specimens) and the test compound at a final concentration of 1 μM. Following a short preincubation period at 37° C., the reactions are initiated by addition of 12 μL beta-nicotinamide adenine dinucleotide phosphate, reduced form (NADPH, 10 mM) and terminated by transferring an aliquot into solvent after different time points (0, 5, 15, 30, 60 min). Additionally, the NADPH-independent degradation is monitored in incubations without NADPH, terminated at the last time point by addition of acetonitrile. The quenched incubations are pelleted by centrifugation (4,000 rpm, 15 min). An aliquot of the supernatant is assayed by LC-MS/MS to quantify the concentration of parent compound in the individual samples.
In vitro intrinsic clearance (CLint, in vitro) is calculated from the time course of the disappearance of the test drug during the microsomal incubation. Each plot is fitted to the first-order elimination rate constant as C(t)=C0*exp(−ke*t), where C(t) and C0 are the concentration of unchanged test drug at incubation time t and that at preincubation and ke is the disappearance rate constant of the unchanged drug. Subsequently, CLint, in vitro (μL min^−1·amount protein) values are converted to predicted CLint, in vivo (mL min^−1·kg^−1) from incubation parameters according to the equation CLint, in vivo=CLint, in vitro×(incubation volume (ml)/amount protein (mg))×(amount protein (mg)/g liver tissue)×(liver weight/body wt.). For better across species comparison the predicted clearance is expressed as percent of the liver blood flow [% QH](mL min^−1·kg^−1) in the individual species. In general, high stability (corresponding to low % QH) of the compounds across species is desired.

[4] = McIlvaine buffer pH 4.5, 24 h, read-out: solubility pH 4.5
[5] = McIlvaine buffer pH 6.8, 24 h, read-out: solubility pH 6.8

T2 sequence (P01116 1-169 isoform P01116-2 G12D): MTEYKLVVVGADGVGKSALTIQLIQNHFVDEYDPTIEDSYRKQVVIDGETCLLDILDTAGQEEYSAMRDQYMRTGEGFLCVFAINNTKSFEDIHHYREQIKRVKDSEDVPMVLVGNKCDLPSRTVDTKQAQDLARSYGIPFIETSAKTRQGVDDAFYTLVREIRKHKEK
Chain of KRAS G12C Ba/F3 cells (P01116 whole entry G12C): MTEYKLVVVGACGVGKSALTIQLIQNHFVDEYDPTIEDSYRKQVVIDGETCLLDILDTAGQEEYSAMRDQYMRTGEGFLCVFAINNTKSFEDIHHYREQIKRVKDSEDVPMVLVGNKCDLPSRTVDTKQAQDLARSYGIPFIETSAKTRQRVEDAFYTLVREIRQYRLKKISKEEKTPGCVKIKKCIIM
Chain of KRAS G12D Ba/F3 cells (P01116 whole entry G12D, canonical isoform): as the sequence (P01116 whole entry G12C) above, with C12D counted along it
T3 sequence (P01116 1-169 isoform P01116-2 G12C/C51S/C80L/C118S): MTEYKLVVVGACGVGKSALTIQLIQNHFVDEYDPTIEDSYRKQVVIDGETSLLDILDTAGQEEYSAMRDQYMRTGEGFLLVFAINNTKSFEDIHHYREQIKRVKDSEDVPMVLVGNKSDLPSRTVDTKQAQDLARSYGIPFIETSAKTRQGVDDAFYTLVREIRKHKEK
T1 sequence (P01116 1-169 isoform P01116-2 G12V/C118S): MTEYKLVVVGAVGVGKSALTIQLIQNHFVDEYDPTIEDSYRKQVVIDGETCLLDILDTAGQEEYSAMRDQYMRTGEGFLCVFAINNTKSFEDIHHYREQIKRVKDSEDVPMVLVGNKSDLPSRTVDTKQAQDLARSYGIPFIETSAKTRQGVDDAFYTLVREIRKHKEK
Chain of KRAS G12V Ba/F3 cells (P01116 whole entry G12V): as the sequence (P01116 whole entry G12C) above, with C12V counted along it

Row | GI50 (KRAS G12D Ba/F3 cells) [nM] | IC50 [1] [nM] | solubility at 24 h [2, 4] [µg/mL] | solubility at 24 h [2, 5] [µg/mL] | IC50 (KRAS (G12V) and SOS1) [nM] | IC50 (KRAS (G12D) and SOS1) [nM] | GI50 (KRAS G12V Ba/F3 cells) [nM] | GI50 (KRAS G12C Ba/F3 cells) [nM] | IC50 (KRAS (G12C) and SOS1) [nM] | HLM QH [3] [%] | Compound
1 | 214 | 24 | > 100 | 82 (≈ 162 µM) | 5 | 3 | 516 | 409 | 6 | >95 | C[C@H]1CN(CC2CC2)CCCN1c1nccc(-c2noc([C@@]3(C)CCCc4sc(N)c(C#N)c43)n2)n1 [Example V-3]
2 | 108 | 19 | > 110 | > 110 |  | 2 |  | 105 | 4 |  | C[C@H](Oc1ccnc(-c2cc([C@@]3(C)CCCc4sc(N)c(C#N)c43)on2)n1)[C@@H]1CCCN1C [Example V-24]
3 | 961 | 100 | > 110 | > 100 | 11 | 9 | 6060 | 940 | 14 |  | C[C@H](Oc1ccnc(-c2cc([C@@]3(C)CCCc4sc(N)c(C#N)c43)no2)n1)[C@@H]1CCCN1C [Example V-25]
4 | 79 |  | > 100 | 95 (≈ 193 µM) |  | 2 |  | 95 | 7 |  | CC(C)N1CCCN(c2nccc(-c3cc([C@@]4(C)CCCc5sc(N)c(C#N)c54)on3)n2)[C@@H](C)C1 [Example V-26]
